In patent US6740677B2, “Methods of treating benzodiazepine site (BZD-S) associated syndromes using 2′ hydroxyflavonoids” (priority 2002, dated 2004):

What was measured:
[1] = target: benzodiazepine binding site; experiment: Inhibition of [3H]-flunitrazepam by 2′ flavonoid derivatives (Example 7)
[2] = target: benzodiazepine site (BZD-S) of the GABAA receptor
[3] = system: mice; experiment: Elevated plus-maze test; type: in vivo, Male ICR mice
[4] = system: benzodiazepine site (BZD-S) of the GABAA receptor; experiment: Radioligand receptor binding, displacement of [3H]-flunitrazepam (Example 1)
[5] = system: benzodiazepine site on GABAA receptor; experiment: GABA shift experiment, [3H]-Ro15-1788 competition with/without 10 μM GABA; type: binding, rat
[6] = system: mice; experiment: Hole-board test; type: in vivo, Male ICR mice; set-up: Time spent head-dipping: unit not given here
[7] = system: mice; experiment: Horizontal wire test; type: in vivo, Male ICR mice
[8] = target: BZD-S; experiment: Radio-receptor binding assay, [3H]flunitrazepam, forebrain crude synaptosomal fraction (Example 3); set-up: species or system Sprague-Dawley rats; conditions: 1 nM [3H]flunitrazepam, rat forebrain; read-out: Inhibition of 3H-Flunitrazepam Ki
[9] = system: benzodiazepine site; conditions: 10^-4 M GABA, rat cerebral cortex membranes; cited from earlier work
[10] = system: benzodiazepine site; conditions: 10^-5 M muscimol, rat cerebellar membranes; cited from earlier work
[11] = 1 mg/kg oral, time cell empty, 5-min test
[12] = 5 mg/kg oral, time cell empty, 5-min test
[13] = 1 mg/kg oral, time cell empty (1 hour), 5-min test
[14] = 5 mg/kg oral, time cell empty (1 hour), 5-min test

COc1ccc2oc(-c3ccccc3N)cc(=O)c2c1 [2′-amino, 6-methoxyflavone]
IC50 [1]: 2000 nM

COc1c(O)c(OC)c2oc(-c3ccccc3O)cc(=O)c2c1O [Compound 1, 5,7,2′-trihydroxy-6,8-dimethoxyflavone]
Ki [2]: 1.1 nM | % of entries into open arms ([3]; 1 mg/kg oral, 20 min): 18.39 ± 3.14% | % of time spent in open arms ([3]; 1 mg/kg oral, 20 min): 14.28 ± 2.36% | % of entries into open arms ([3]; 1 mg/kg oral, 60 min): 18.51 ± 3.34% | % of time spent in open arms ([3]; 1 mg/kg oral, 60 min): 15.80 ± 3.29% | % of entries into open arms ([3]; 2 mg/kg oral, 20 min): 18.30 ± 2.78% | % of time spent in open arms ([3]; 2 mg/kg oral, 20 min): 15.74 ± 3.00% | % of entries into open arms ([3]; 2 mg/kg oral, 60 min): 16.91 ± 2.49% | % of time spent in open arms ([3]; 2 mg/kg oral, 60 min): 16.84 ± 1.99% | anxiolysis compared to either dosage of diazepam ([3]; 4.0 mg/kg): more anxiolysis | % of entries into open arms ([3]; 4 mg/kg oral, 20 min): 32.28 ± 2.91 % | % of time spent in open arms ([3]; 4 mg/kg oral, 20 min): 33.55 ± 2.09 % | % of entries into open arms ([3]; 4 mg/kg oral, 60 min): 19.90 ± 1.63% | % of time spent in open arms ([3]; 4 mg/kg oral, 60 min): 15.69 ± 2.09% | % of entries into open arms ([3]; 8 mg/kg oral, 20 min): 28.90 ± 2.23 % | % of time spent in open arms ([3]; 8 mg/kg oral, 20 min): 25.62 ± 1.73 % | % of entries into open arms ([3]; 8 mg/kg oral, 60 min): 18.67 ± 2.24% | % of time spent in open arms ([3]; 8 mg/kg oral, 60 min): 16.76 ± 2.19% | time spent in open arms and entries made into open arms vs control ([3]; 4.0 and 8.0 mg/kg, twenty minutes after dosage): significant increase | fold difference in binding affinity ([4]; Compound 1 vs Compound 6 (K1)): 260 fold | IC50 ([4]; read-out: Inhibition of 3H-Flunitrazepam IC50, 1 nM [3H]-flunitrazepam, rat whole brain synaptosomal membrane): 1.5 nM | GABA ratio ([5]; IC50 without GABA / IC50 with 10 μM GABA, 1 nM [3H]-Ro15-1788): 1.20 | Number of head dips ([6]; 1 mg/kg oral, 20 min): 13.56 ± 1.81 | Number of rearings ([6]; 1 mg/kg oral, 20 min): 24.19 ± 3.53 | Time spent head-dipping ([6]; 1 mg/kg oral, 20 min): 15.38 ± 1.59 | Number of head dips ([6]; 1 mg/kg oral, 60 min): 15.75 ± 2.53 | Number of rearings ([6]; 1 mg/kg oral, 60 min): 23.94 ± 2.34 | Time spent head-dipping ([6]; 1 mg/kg oral, 60 min): 16.75 ± 3.78 | Number of head dips ([6]; 2 mg/kg oral, 20 min): 13.13 ± 1.96 | Number of rearings ([6]; 2 mg/kg oral, 20 min): 22.06 ± 3.17 | Time spent head-dipping ([6]; 2 mg/kg oral, 20 min): 14.56 ± 2.04 | Number of head dips ([6]; 2 mg/kg oral, 60 min): 14.50 ± 2.73 | Number of rearings ([6]; 2 mg/kg oral, 60 min): 22.13 ± 2.46 | Time spent head-dipping ([6]; 2 mg/kg oral, 60 min): 15.13 ± 2.20 | number of head-dips, time spent head-dipping and number of rearings ([6]; 4 mg/kg acute, twenty minutes after dosage): significant increase | Number of head dips ([6]; 4 mg/kg oral, 20 min): 20.25 ± 1.42 | Number of rearings ([6]; 4 mg/kg oral, 20 min): 29.54 ± 2.09 | Time spent head-dipping ([6]; 4 mg/kg oral, 20 min): 23.35 ± 1.28 | Number of head dips ([6]; 4 mg/kg oral, 60 min): 16.95 ± 1.33 | Number of rearings ([6]; 4 mg/kg oral, 60 min): 27.56 ± 2.79 | Time spent head-dipping ([6]; 4 mg/kg oral, 60 min): 17.56 ± 1.20 | Number of head dips ([6]; 8 mg/kg oral, 20 min): 18.46 ± 3.65 | Number of rearings ([6]; 8 mg/kg oral, 20 min): 25.26 ± 2.74 | Time spent head-dipping ([6]; 8 mg/kg oral, 20 min): 19.55 ± 4.23 | Number of head dips ([6]; 8 mg/kg oral, 60 min): 15.72 ± 1.86 | Number of rearings ([6]; 8 mg/kg oral, 60 min): 23.75 ± 3.18 | Time spent head-dipping ([6]; 8 mg/kg oral, 60 min): 15.06 ± 1.98 | sedative effects (decrease in head-dips, time head-dipping, rearings) ([6]; mouse, in vivo): lack of sedative effects | ability to grasp the wire ([7]; K36 dosage regimen 1.0-8.0 mg/kg): remained unchanged | Ki [8]: 1.1 nM

CN1C(=O)CN=C(c2ccccc2)c2cc(Cl)ccc21 [Diazepam, reference compound]
GABA ratio (IC50 ratio without GABA/with GABA), column A [9]: 2.9 | % of entries into open arms [3, 11]: 26.48 ± 2.83 % | % of time spent in open arms [3, 11]: 28.71 ± 2.27 % | % of entries into open arms [3, 12]: 29.85 ± 1.29 % | % of time spent in open arms [3, 12]: 32.24 ± 1.56 % | time spent in open arms and entries made into open arms vs control ([3]; 1.0 and 5.0 mg/kg): dose dependent increase | GABA ratio (IC50 ratio without GABA/with GABA), column C ([5]; 10^-5 M GABA, rat cerebral cortex membranes): 2.0 | Number of head dips [6, 13]: 19.12 ± 2.92 | Number of rearings [6, 13]: 25.13 ± 2.85 | Time spent head-dipping [6, 13]: 22.75 ± 2.59 | Number of head dips [6, 14]: 17.25 ± 1.89 | Number of rearings [6, 14]: 32.16 ± 3.15 | Time spent head-dipping [6, 14]: 19.50 ± 2.33 | sedative effects (decrease in head-dips, time head-dipping, rearings) ([6]; at the dosage regimen): lack of sedative effects | ability to grasp the wire compared to control ([7]; 5.0 mg/kg): significant impairment | Ki [8]: 9.5 nM | GABA ratio (IC50 ratio without GABA/with GABA), column B [10]: 2.3
